# Measured values published in patent US6803030B2, “Bile acids conjugates with metal ion chelates and the use thereof” (Bracco Imaging S.p.A., priority 2000, dated 2004).
# Experiment: Pharmacokinetics screening in rats (biliary and urinary excretion, residual tissue content of gadolinium by ICP-AES)
# Format: in vivo
# Settings: for Biliary % of the injected dose / Urinary % of the injected dose: anaesthetised CD(SD)BR male rats, i.v. 0.1 mmol/kg
# Description: The experimentation was performed with the complex compound of example 1.
# The screening was performed in 3 anaesthetised CD(SD)BR male rats (Charles River Italia).
# The animals were maintained according to EEC Council Directive […] as included in Italian law DL116/92 (experimental typology KIN 3).
# The contrast agent was injected in the vena saphena at the single dose of 0.1 mmol.kg^−1, injection rate of 6 mL-min^−1.
# After the administration of the complex compound, the collection of the biological fluids in the anaesthetised rats was performed by cannulation of urinary bladder and biliary duct. The urine was collected at 0 to 60, 60 to 120, 120 to 240, 240 to 480 min after injection; the bile at −30 to 0, 0 to 15, 15 to 30, 30 to 60, 60 to 120, 120 to 240, 240 to 480 min after injection.
# Animals were killed at the end of the studies by exanguination from abdominal aorta.
# Blood, liver and kidneys were collected after the sacrifice for the assay of gadolinium by inductively coupled plasma atomic emission ICP-AES.
# [1] = anaesthetised rats, intravenous, 0 to 480 min period
# [2] = anaesthetised rats, intravenous, at 480 min after administration
substance,measurement,setting,value
"Gadolinium complex of [3α[3(S),4(S)],5β,12α]-3-[[[trans-3,4-bis[[[5-[bis[2-[bis(carboxymethyl)amino]ethyl]amino]-5-carboxypentyl]amino]carbonyl]-1-pyrrolidinyl]carbonyl]oxy]-12-hydroxycholan-24-oic acid salified with sodium (1:5) [Example 1]",Biliary % of the injected dose,collection time 0 to 15 min,0.0102 ± 0.0010 % of the injected dose
same,Biliary % of the injected dose,collection time 0 to 30 min,0.0208 ± 0.0012 % of the injected dose
same,Biliary % of the injected dose,collection time 0 to 60 min,0.0374 ± 0.0023 % of the injected dose
same,Urinary % of the injected dose,collection time 0 to 60 min,11.2 ± 4.6 % of the injected dose
same,Biliary % of the injected dose,collection time 0 to 120 min,0.0561 ± 0.0052 % of the injected dose
same,Urinary % of the injected dose,collection time 0 to 120 min,18.6 ± 5.0 % of the injected dose
same,Biliary % of the injected dose,collection time 0 to 240 min,0.0950 ± 0.0073 % of the injected dose
same,Urinary % of the injected dose,collection time 0 to 240 min,27.9 ± 5.3 % of the injected dose
same,Biliary % of the injected dose,collection time 0 to 480 min,0.175 ± 0.020 % of the injected dose
same,Urinary % of the injected dose,collection time 0 to 480 min,36.2 ± 2.7 % of the injected dose
same,biliary excretion,[1],0.175 % of ID
same,urinary excretion,[1],36 % of ID
same,residual content in kidney,[2],6.7 % of the injected dose
same,residual content in liver,[2],2.564 % of the injected dose
same,residual content in plasma,[2],14.3 % of the injected dose
